Assays:
Assay in all cases: radiometric filter-binding kinase assay
[1] = target: AKT2 (human) (UniProt P31751); settings: compound 1.0 µM; ATP 50 µM
[2] = target: AURKB (human) (UniProt Q96GD4); settings: compound 1.0 µM; ATP 20 µM
[3] = target: AURKC (human) (UniProt Q9UQB9); settings: compound 1.0 µM; ATP 5 µM
[4] = target: CAMKK1 (human) (UniProt Q8N5S9); settings: compound 1.0 µM; ATP 20 µM
[5] = target: CSNK1D (human) (UniProt P48730); settings: compound 1.0 µM; ATP 20 µM
[6] = target: CSNK2A1 or CSNK2A2 (human) (UniProt P19784+P68400); settings: compound 1.0 µM; ATP 5 µM
[7] = target: CaMK1 (human) (UniProt Q14012); settings: compound 1.0 µM; ATP 50 µM
[8] = target: DYRK1A (human) (UniProt Q13627); settings: compound 1.0 µM; ATP 50 µM
[9] = target: DYRK2 (human) (UniProt Q92630); settings: compound 1.0 µM; ATP 50 µM
[10] = target: DYRK3 (human) (UniProt O43781); settings: compound 1.0 µM; ATP 5 µM
[11] = target: EEF2K (human) (UniProt O00418); settings: compound 1.0 µM; ATP 5 µM
[12] = target: GSK3B (human) (UniProt P49841); settings: compound 1.0 µM; ATP 5 µM
[13] = target: HIPK3 (human) (UniProt Q9H422); settings: compound 1.0 µM; ATP 20 µM
[14] = target: IKBKB (human) (UniProt O14920); settings: compound 1.0 µM; ATP 5 µM
[15] = target: MAPK1 (human) (UniProt P28482); settings: compound 1.0 µM; ATP 50 µM
[16] = target: MAPK10 (human) (UniProt P53779); settings: compound 1.0 µM; ATP 50 µM
[17] = target: MAPK13 (human) (UniProt O15264); settings: compound 1.0 µM; ATP 5 µM
[18] = target: MAPK14 (human) (UniProt Q16539); settings: compound 1.0 µM; ATP 50 µM
[19] = target: MAPK15 (human) (UniProt Q8TD08); settings: compound 1.0 µM; ATP 5 µM
[20] = target: MAPK8 (human) (UniProt P45983); settings: compound 1.0 µM; ATP 20 µM
[21] = target: MAPK9 (human) (UniProt P45984); settings: compound 1.0 µM; ATP 20 µM
[22] = target: MAPKAPK2 (human) (UniProt P49137); settings: compound 1.0 µM; ATP 20 µM
[23] = target: MAPKAPK3 (human) (UniProt Q16644); settings: compound 1.0 µM; ATP 20 µM
[24] = target: MARK3 (human) (UniProt P27448); settings: compound 1.0 µM; ATP 5 µM
[25] = target: MELK (human) (UniProt Q14680); settings: compound 1.0 µM; ATP 50 µM
[26] = target: MKNK1 (human) (UniProt Q9BUB5); settings: compound 1.0 µM; ATP 50 µM
[27] = target: MKNK2 (human) (UniProt Q9HBH9); settings: compound 1.0 µM; ATP 50 µM
[28] = target: MYLK (human) (UniProt Q15746); settings: compound 1.0 µM; ATP 50 µM
[29] = target: NEK2 (human) (UniProt P51955); settings: compound 1.0 µM; ATP 50 µM
[30] = target: NEK6 (human) (UniProt Q9HC98); settings: compound 1.0 µM; ATP 50 µM
[31] = target: NEK7 (human) (UniProt Q8TDX7); settings: compound 1.0 µM; ATP 20 µM
[32] = target: PAK4 (human) (UniProt O96013); settings: compound 1.0 µM; ATP 5 µM
[33] = target: PAK7 (human) (UniProt Q9P286); settings: compound 1.0 µM; ATP 20 µM
[34] = target: PDPK1 (human) (UniProt O15530); settings: compound 1.0 µM
[35] = target: PKN2 (human) (UniProt Q16513); settings: compound 1.0 µM; ATP 5 µM
[36] = target: PLK1 (human) (UniProt P53350); settings: compound 1.0 µM; ATP 5 µM
[37] = target: PRKCA (human) (UniProt P17252); settings: compound 1.0 µM; ATP 20 µM
[38] = target: PRKCG (human) (UniProt P05129); settings: compound 1.0 µM; ATP 5 µM
[39] = target: ROCK2 (human) (UniProt O75116); settings: compound 1.0 µM; ATP 20 µM
[40] = target: RPS6KA5 KD1 KD2 (human) (UniProt O75582); settings: compound 1.0 µM; ATP 20 µM

PDPK1 (human), sequence (O15530 whole entry, looked up): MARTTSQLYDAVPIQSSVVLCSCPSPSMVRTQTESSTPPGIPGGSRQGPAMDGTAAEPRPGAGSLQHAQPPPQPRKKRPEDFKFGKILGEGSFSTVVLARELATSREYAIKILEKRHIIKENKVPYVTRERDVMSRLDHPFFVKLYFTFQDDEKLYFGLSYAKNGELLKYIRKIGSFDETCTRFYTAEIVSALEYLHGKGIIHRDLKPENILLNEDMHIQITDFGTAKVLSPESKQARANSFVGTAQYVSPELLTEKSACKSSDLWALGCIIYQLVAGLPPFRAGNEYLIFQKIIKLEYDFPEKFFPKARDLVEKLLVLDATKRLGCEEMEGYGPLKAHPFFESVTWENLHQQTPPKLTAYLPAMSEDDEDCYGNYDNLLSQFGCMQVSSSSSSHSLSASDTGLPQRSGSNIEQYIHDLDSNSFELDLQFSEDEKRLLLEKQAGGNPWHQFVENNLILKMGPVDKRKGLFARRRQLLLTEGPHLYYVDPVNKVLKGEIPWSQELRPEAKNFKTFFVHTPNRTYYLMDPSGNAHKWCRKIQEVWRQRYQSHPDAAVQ
AKT2 (human), sequence (P31751 whole entry, looked up): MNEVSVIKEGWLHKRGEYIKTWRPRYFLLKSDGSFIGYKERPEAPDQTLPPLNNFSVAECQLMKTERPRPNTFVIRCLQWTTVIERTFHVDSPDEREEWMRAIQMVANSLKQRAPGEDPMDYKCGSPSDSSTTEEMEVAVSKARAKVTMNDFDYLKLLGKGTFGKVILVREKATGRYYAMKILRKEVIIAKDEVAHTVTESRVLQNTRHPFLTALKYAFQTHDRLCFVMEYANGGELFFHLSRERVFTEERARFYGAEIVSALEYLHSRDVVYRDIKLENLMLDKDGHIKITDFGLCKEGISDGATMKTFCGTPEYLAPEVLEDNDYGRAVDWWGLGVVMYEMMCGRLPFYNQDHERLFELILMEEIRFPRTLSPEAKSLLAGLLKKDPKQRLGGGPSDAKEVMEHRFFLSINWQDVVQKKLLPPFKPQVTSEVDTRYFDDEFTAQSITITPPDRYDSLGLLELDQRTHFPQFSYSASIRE
MAPK15 (human), sequence (Q8TD08 whole entry, looked up): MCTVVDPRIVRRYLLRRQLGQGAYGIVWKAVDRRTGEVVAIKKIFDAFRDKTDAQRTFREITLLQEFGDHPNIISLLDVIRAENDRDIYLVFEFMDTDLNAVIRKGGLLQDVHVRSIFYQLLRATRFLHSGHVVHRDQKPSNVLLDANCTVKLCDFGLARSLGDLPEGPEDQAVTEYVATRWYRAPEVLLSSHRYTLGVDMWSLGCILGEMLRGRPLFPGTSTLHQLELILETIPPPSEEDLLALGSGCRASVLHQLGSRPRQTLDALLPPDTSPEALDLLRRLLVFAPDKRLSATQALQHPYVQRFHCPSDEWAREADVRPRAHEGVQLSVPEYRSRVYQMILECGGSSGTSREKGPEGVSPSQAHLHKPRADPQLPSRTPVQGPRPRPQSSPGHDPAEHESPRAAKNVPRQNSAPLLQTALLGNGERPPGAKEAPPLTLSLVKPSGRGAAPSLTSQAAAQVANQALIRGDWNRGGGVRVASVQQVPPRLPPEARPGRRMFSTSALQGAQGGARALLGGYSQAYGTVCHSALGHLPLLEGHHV
PLK1 (human), sequence (P53350 whole entry, looked up): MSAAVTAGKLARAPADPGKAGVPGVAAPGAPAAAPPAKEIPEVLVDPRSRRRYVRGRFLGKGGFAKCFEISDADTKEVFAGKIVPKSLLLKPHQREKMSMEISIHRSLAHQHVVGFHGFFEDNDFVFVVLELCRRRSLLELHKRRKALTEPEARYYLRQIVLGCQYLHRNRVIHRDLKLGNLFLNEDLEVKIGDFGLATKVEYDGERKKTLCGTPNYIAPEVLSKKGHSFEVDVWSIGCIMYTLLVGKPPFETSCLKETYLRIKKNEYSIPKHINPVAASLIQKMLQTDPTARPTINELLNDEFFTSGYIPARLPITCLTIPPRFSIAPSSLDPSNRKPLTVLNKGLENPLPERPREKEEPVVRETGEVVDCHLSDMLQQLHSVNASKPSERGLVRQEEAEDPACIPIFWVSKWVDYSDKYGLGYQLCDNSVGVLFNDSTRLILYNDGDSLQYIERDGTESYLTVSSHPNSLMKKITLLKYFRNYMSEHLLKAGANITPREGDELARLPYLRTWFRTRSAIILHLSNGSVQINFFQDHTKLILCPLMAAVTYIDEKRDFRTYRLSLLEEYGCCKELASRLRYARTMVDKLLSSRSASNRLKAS
AURKC (human), sequence (Q9UQB9 whole entry, looked up): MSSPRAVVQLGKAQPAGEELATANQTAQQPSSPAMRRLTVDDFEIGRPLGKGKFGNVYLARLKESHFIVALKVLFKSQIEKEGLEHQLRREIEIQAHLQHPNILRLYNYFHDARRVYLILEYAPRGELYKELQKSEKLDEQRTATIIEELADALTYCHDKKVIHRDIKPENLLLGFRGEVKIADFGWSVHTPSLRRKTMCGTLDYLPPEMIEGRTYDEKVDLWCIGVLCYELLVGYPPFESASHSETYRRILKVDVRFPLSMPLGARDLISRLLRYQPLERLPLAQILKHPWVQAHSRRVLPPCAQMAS
MKNK2 (human), sequence (Q9HBH9 whole entry, looked up): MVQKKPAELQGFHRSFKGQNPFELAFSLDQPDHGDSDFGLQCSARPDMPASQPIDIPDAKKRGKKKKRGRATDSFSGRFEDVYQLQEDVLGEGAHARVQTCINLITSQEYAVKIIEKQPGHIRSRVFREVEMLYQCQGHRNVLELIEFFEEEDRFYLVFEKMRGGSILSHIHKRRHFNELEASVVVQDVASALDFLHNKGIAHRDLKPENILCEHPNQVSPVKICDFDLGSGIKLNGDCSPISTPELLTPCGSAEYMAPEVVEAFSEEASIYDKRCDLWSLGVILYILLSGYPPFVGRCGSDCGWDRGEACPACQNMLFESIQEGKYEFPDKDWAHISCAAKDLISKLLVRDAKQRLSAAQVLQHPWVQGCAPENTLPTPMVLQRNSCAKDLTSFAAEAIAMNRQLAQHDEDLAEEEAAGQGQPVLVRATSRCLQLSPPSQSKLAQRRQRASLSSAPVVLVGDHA
MELK (human), sequence (Q14680 whole entry, looked up): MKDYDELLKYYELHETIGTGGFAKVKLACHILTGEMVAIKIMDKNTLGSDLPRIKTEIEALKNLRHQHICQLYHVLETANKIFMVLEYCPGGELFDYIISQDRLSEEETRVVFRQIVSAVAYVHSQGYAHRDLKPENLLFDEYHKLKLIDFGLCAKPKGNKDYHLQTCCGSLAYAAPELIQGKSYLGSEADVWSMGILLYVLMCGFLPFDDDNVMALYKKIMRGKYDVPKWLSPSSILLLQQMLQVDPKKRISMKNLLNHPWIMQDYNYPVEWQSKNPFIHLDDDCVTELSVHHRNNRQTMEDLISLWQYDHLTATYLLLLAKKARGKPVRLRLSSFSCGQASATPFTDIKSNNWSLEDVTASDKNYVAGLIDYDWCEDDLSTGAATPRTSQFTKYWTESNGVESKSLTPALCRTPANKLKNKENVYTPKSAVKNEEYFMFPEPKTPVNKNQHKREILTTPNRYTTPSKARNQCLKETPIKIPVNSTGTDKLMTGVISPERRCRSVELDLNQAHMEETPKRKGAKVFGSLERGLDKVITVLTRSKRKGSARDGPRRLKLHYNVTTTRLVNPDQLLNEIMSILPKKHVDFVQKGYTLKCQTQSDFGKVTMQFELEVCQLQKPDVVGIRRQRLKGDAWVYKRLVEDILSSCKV
DYRK2 (human), sequence (Q92630 whole entry, looked up): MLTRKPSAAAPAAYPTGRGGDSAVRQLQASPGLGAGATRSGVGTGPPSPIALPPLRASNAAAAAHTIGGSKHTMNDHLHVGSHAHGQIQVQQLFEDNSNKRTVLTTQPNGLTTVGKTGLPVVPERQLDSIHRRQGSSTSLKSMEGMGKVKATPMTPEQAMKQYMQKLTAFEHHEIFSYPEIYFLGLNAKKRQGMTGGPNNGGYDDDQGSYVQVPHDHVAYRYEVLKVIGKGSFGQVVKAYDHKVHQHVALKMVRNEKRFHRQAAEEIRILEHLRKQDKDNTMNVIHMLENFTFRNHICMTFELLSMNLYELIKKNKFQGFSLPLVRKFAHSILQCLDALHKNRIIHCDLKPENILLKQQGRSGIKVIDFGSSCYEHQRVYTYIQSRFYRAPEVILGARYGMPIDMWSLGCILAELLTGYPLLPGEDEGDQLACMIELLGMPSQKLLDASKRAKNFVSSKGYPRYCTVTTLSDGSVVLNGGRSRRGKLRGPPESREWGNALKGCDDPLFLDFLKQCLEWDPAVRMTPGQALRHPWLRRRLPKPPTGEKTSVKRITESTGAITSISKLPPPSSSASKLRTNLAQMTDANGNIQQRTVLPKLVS

residual activity [1]: 85% | residual activity [2]: 86% | residual activity [3]: 97% | residual activity [4]: 80% | residual activity [5]: 88% | residual activity [6]: 92% | residual activity [7]: 97% | residual activity [8]: 91% | residual activity [9]: 84% | residual activity [10]: 88% | residual activity [11]: 94% | residual activity [12]: 83% | residual activity [13]: 108% | residual activity [14]: 82% | residual activity [15]: 94% | residual activity [16]: 81% | residual activity [17]: 92% | residual activity [18]: 75% | residual activity [20]: 90% | residual activity [21]: 81% | residual activity [22]: 108% | residual activity [23]: 104% | residual activity [24]: 88% | residual activity [25]: 74% | residual activity [26]: 83% | residual activity [27]: 102% | residual activity [28]: 107% | residual activity [29]: 82% | residual activity [30]: 95% | residual activity [31]: 102% | residual activity [32]: 81% | residual activity [33]: 89% | residual activity ([34]; ATP 20 µM): 85% | residual activity ([34]; ATP 50 µM): 92% | residual activity [35]: 79% | residual activity [36]: 78% | residual activity [37]: 88% | residual activity [38]: 92% | residual activity [39]: 103% | residual activity [40]: 86%
SMILES: CO[C@H]1CC2CC[C@@H](C)[C@@](O)(O2)C(=O)C(=O)N2CCCC[C@H]2C(=O)OC([C@H](C)C[C@@H]2CC[C@@H](O)[C@H](OC)C2)CC(=O)[C@H](C)/C=C(\C)[C@@H](O)[C@@H](OC)C(=O)[C@H](C)C[C@H](C)/C=C/C=C/C=C/1C (stereo partly specified)
residual activity [19]: 97%

Source: the kinase profiling compilation of Christmann-Franck et al. (2016)
